US20260265233A1, “BENZOTHIOPHENE DERIVATIVES AS RXFP1 AGONISTS” (BRISTOL-MYERS SQUIBB COMPANY, priority 2021, published 2026)

Target: T1, human RXFP1 (Homo sapiens, UniProt Q9HBX9)
T1 construct: expressed in transfected cells
T1 sequence (Q9HBX9 1-757): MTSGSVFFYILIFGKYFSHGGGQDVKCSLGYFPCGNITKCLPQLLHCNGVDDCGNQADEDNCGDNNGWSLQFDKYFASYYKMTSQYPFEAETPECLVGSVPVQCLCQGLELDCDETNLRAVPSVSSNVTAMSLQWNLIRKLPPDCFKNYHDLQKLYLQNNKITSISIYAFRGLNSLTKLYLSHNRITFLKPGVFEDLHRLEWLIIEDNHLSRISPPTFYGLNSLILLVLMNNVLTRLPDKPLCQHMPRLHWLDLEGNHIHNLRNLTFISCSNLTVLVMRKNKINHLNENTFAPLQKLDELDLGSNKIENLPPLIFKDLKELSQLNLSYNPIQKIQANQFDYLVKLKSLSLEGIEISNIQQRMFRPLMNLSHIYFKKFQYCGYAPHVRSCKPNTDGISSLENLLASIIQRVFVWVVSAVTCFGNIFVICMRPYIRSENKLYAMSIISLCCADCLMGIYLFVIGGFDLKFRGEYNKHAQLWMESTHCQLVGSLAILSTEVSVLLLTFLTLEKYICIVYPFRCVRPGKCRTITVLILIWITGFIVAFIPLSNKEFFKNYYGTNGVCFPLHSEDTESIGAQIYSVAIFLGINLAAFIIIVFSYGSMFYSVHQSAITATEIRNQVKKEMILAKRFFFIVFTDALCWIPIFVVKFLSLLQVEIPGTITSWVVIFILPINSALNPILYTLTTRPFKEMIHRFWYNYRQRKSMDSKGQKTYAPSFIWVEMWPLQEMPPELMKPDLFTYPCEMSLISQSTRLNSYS
Assay: hRXFP1 HEK293 cAMP assay (HTRF)
Assay type: cell-based
Conditions: HEK293 cells stably expressing human RXFP1; 30 min at rt; intracellular cAMP by HTRF
Procedure: RXFP1 Cyclic Adenosine Monophosphate (cAMP) Assays. Human embryonic kidney cells 293 (HEK293) cells and HEK293 cells stably expressing human RXFP1, were cultured in MEM medium supplemented with 10% qualified FBS, and 300 μg/ml hygromycin (Life Technologies). Cells were dissociated and suspended in assay buffer. The assay buffer was HBSS buffer (with calcium and magnesium) containing 20 mM HEPES, 0.05% BSA, and 0.5 mM IBMX. Cells (3000 cells per well, except 1500 cell per well for HEK293 cells stably expressing human RXFP1) were added to 384-well Proxiplates (Perkin-Elmer). Cells were immediately treated with test compounds in DMSO (2% final) at final concentrations in the range of 0.010 nM to 50 μM. Cells were incubated for 30 min at rt. The level of intracellular cAMP was determined using the HTRF HiRange cAMP assay reagent kit (Cisbio) according to manufacturer's instructions. Solutions of cryptate conjugated anti-cAMP and d2 fluorophore-labelled cAMP were made in a supplied lysis buffer separately. Upon completion of the reaction, the cells were lysed with equal volume of the d2-cAMP solution and anti-cAMP solution. After a 1 h rt incubation, time-resolved fluorescence intensity was measured using the Envision (Perkin-Elmer) at 400 nm excitation and dual emission at 590 nm and 665 nm. A calibration curve was constructed with an external cAMP standard at concentrations ranging from 2.7 μM to 0.1 pM by plotting the fluorescent intensity ratio from 665 nm emission to the intensity from the 590 nm emission against cAMP concentrations. The potency and activity of a compound to […] cAMP production was then determined by fitting to a 4-parametric logistic equation from a plot of cAMP level versus compound concentrations.
The examples disclosed below were tested in the human RXFP1 (hRXFP1) HEK293 cAMP assay described above and found to have agonist activity.

Row | SMILES | EC50 [nM]
1 | COc1ccc(C2CCCN(CC(N)=O)CC2)cc1C(=O)Nc1c(C(=O)Nc2ccc(F)c(C(F)(F)F)c2)sc2cc(C(F)(F)F)ccc12 (single isomer, unassigned) [Example 70, 3-(5-(1-(2-amino-2-oxoethyl)azepan-4-yl)-2-methoxy-benzamido)-N-(4-fluoro-3-(trifluoromethyl)phenyl)-6-(trifluoromethyl) benzo[b] thiophene-2-carboxamide] | 46.8
2 | COc1ccc(C2CCCN(CCO)CC2)cc1C(=O)Nc1c(C(=O)Nc2ccc(F)c(C(F)(F)F)c2)sc2cc(C(F)(F)F)ccc12 (single isomer, unassigned) [Example 72, N-(4-fluoro-3-(trifluoromethyl)phenyl)-3-(5-(1-(2-hydroxyethyl)azepan-4-yl)-2-methoxy-benzamido)-6-(trifluoromethyl) benzo[b] thiophene-2-carboxamide] | 4310
3 | COc1ccc(C2CCCN(CC(N)=O)CC2)cc1C(=O)Nc1c(C(=O)Nc2ccc(F)c(C(F)(F)F)c2)sc2cc(C(F)(F)F)ccc12 (single isomer, unassigned) [Example 73, 3-(5-(1-(2-amino-2-oxoethyl)azepan-4-yl)-2-methoxy-benzamido)-N-(4-fluoro-3-(trifluoromethyl)phenyl)-6-(trifluoromethyl) benzo[b] thiophene-2-carboxamide] | 1040
4 | COc1ccc(C2CCC(O)CC2)cc1C(=O)Nc1c(C(=O)Nc2ccc(F)c(C(F)(F)F)c2)sc2cc(C(F)(F)F)ccc12 (single isomer, unassigned) [Example 75, N-(4-fluoro-3-(trifluoromethyl)phenyl)-3-(5-(4-hydroxycyclo-hexyl)-2-methoxy-benzamido)-6-(trifluoromethyl) benzo[b] thiophene-2-carboxamide] | 420
5 | COc1ccc(C2CCC(O)CC2)cc1C(=O)Nc1c(C(=O)Nc2ccc(F)c(C(F)(F)F)c2)sc2cc(C(F)(F)F)ccc12 (single isomer, unassigned) [Example 76, N-(4-fluoro-3-(trifluoromethyl)phenyl)-3-(5-(4-hydroxycyclo-hexyl)-2-methoxy-benzamido)-6-(trifluoromethyl) benzo[b] thiophene-2-carboxamide] | 498
6 | COc1ccc(C2CCCNC2)cc1C(=O)Nc1c(C(=O)Nc2ccc(F)c(C(F)(F)F)c2)sc2cc(C(F)(F)F)ccc12 (single isomer, unassigned) [Example 77, N-(4-fluoro-3-(trifluoromethyl)phenyl)-3-(2-methoxy-5-(piperidin-3-yl)benzamido)-6-(trifluoromethyl) benzo[b] thiophene-2-carboxamide] | 469
7 | COc1ccc(C2CCCN(CC(=O)N(C)C)C2)cc1C(=O)Nc1c(C(=O)Nc2ccc(F)c(C(F)(F)F)c2)sc2cc(C(F)(F)F)ccc12 (single isomer, unassigned) [Example 82, 3-(5-(1-(2-(dimethylamino)-2-oxoethyl)piperidin-3-yl)-2-methoxy-benzamido)-N-(4-fluoro-3-(trifluoromethyl)phenyl)-6-(trifluoromethyl) benzo[b] thiophene-2-carboxamide] | 978
8 | COc1ccc(C2CCCN(CCS(C)(=O)=O)C2)cc1C(=O)Nc1c(C(=O)Nc2ccc(F)c(C(F)(F)F)c2)sc2cc(C(F)(F)F)ccc12 (single isomer, unassigned) [Example 86, N-(4-fluoro-3-(trifluoromethyl)phenyl)-3-(2-methoxy-5-(1-(2-(methylsulfonyl)ethyl)piperidin-3-yl)benzamido)-6-(trifluoromethyl) benzo[b] thiophene-2-carboxamide] | 1150
9 | COc1ccc(C2CCCN(C(=O)CN(C)C)C2)cc1C(=O)Nc1c(C(=O)Nc2ccc(F)c(C(F)(F)F)c2)sc2cc(C(F)(F)F)ccc12 (single isomer, unassigned) [Example 87, 3-(5-(1-(dimethylglycyl)piperidin-3-yl)-2-methoxy-benzamido)-N-(4-fluoro-3-(trifluoromethyl)phenyl)-6-(trifluoromethyl) benzo[b] thiophene-2-carboxamide] | 1160
10 | COc1ccc(C2CCCN(C(=O)CO)C2)cc1C(=O)Nc1c(C(=O)Nc2ccc(F)c(C(F)(F)F)c2)sc2cc(C(F)(F)F)ccc12 (single isomer, unassigned) [Example 91, N-[4-fluoro-3-(trifluoromethyl)phenyl]-3-{5-[1-(2-hydroxyacetyl)piperidin-3-yl]-2-methoxy-benzamido}-6-(trifluoromethyl)-1-benzothiophene-2-carboxamide] | 95.8
11 | COc1ccc(C2CCCN(C(=O)C(C)(C)CO)C2)cc1C(=O)Nc1c(C(=O)Nc2ccc(F)c(C(F)(F)F)c2)sc2cc(C(F)(F)F)ccc12 (single isomer, unassigned) [Example 93, N-[4-fluoro-3-(trifluoromethyl)phenyl]-3-{5-[1-(3-hydroxy-2,2-dimethyl-propanoyl)piperidin-3-yl]-2-methoxy-benzamido}-6-(trifluoromethyl)-1-benzothiophene-2-carboxamide] | 48.4
12 | COc1ccc(C2CCCN(CC(=O)N(C)C)C2)cc1C(=O)Nc1c(C(=O)Nc2ccc(F)c(C(F)(F)F)c2)sc2cc(C(F)(F)F)ccc12 (single isomer, unassigned) [Example 101, 3-(5-(1-(2-(dimethylamino)-2-oxoethyl)piperidin-3-yl)-2-methoxy-benzamido)-N-(4-fluoro-3-(trifluoromethyl)phenyl)-6-(trifluoromethyl) benzo[b] thiophene-2-carboxamide] | 4420
13 | COc1ccc(C2CCCN(C(=O)CO)C2)cc1C(=O)Nc1c(C(=O)Nc2ccc(F)c(C(F)(F)F)c2)sc2cc(C(F)(F)F)ccc12 (single isomer, unassigned) [Example 103, N-[4-fluoro-3-(trifluoromethyl)phenyl]-3-{5-[1-(2-hydroxyacetyl)piperidin-3-yl]-2-methoxy-benzamido}-6-(trifluoromethyl)-1-benzothiophene-2-carboxamide] | 690
14 | COc1ccc(C2CCCN(C(=O)C(C)(C)CO)C2)cc1C(=O)Nc1c(C(=O)Nc2ccc(F)c(C(F)(F)F)c2)sc2cc(C(F)(F)F)ccc12 (single isomer, unassigned) [Example 105, N-[4-fluoro-3-(trifluoromethyl)phenyl]-3-{5-[1-(3-hydroxy-2,2-dimethyl-propanoyl)piperidin-3-yl]-2-methoxy-benzamido}-6-(trifluoromethyl)-1-benzothiophene-2-carboxamide] | 149
15 | COc1ccc(N2CCCC(C(C)(C)O)C2)cc1C(=O)Nc1c(C(=O)Nc2ccc(F)c(C(F)(F)F)c2)sc2cc(C(F)(F)F)ccc12 (single isomer, unassigned) [Example 107, N-(4-fluoro-3-(trifluoromethyl)phenyl)-3-(5-(3-(2-hydroxypropan-2-yl)piperidin-1-yl)-2-methoxy-benzamido)-6-(trifluoromethyl) benzo[b] thiophene-2-carboxamide] | 918
16 | COc1ccc(N2CCCC(C(C)(C)O)C2)cc1C(=O)Nc1c(C(=O)Nc2ccc(F)c(C(F)(F)F)c2)sc2cc(C(F)(F)F)ccc12 (single isomer, unassigned) [Example 108, N-(4-fluoro-3-(trifluoromethyl)phenyl)-3-(5-(3-(2-hydroxypropan-2-yl)piperidin-1-yl)-2-methoxy-benzamido)-6-(trifluoromethyl) benzo[b] thiophene-2-carboxamide] | 1430
